# Results: PMC9913752, “Proof-of-Concept Study of an Alpha-Fetoprotein-Derived Peptide for the Management of Canine Mammary Cancer” (Animals : an Open Access Journal from MDPI, 2023)
# Where a SMILES comes first, the peptide text is derived from it. [ ]: non-standard residue; d: D form. Hyp = O=C(O)[C@@H]1C[C@@H](O)CN1
# Columns and labels:
# [1] = Clinical parameters in unanesthetized dogs; assay type: in vivo, dog
# [2] = Blood chemistry and hematology after single i.v. dose in dogs; assay type: in vivo, dog; design: Bilirubin Conjugated / WBC: unit not given here
# Method: Monkeys (Macaca mulatta, males) were contractually available through the Animal Resource Facility at Albany Medical College. The monkeys were used to assess pharmacokinetics and tolerability, in anticipation of future human studies. For dogs and monkeys, the full panels of clinical chemistry and hematology parameters were assessed. Monkeys were housed and cared for in accordance with the Guide for the Care and Use of Laboratory Animals (National Research Council, Washington, DC, USA). They were fed a standard Old World monkey diet, enriched with fruits and vegetables and other dietary novelties.
# [3] = unanesthetized dogs, 30 min Post AFPep, mean ± SE from 6 dogs
# [4] = dogs ~10 kg, 24 h after i.v. 40 mg AFPep, average from 2 dogs
# [5] = dogs ~10 kg, 24 h after i.v. 40 mg AFPep, average ± range from 2 dogs, in U/L (unit assumed)
# [6] = dogs ~10 kg, 24 h after i.v. 40 mg AFPep, average ± range from 2 dogs, in g/dL (unit assumed)
# [7] = dogs ~10 kg, 24 h after i.v. 40 mg AFPep, average ± range from 2 dogs, in mg/dL (unit assumed)
# [8] = dogs ~10 kg, 24 h after i.v. 40 mg AFPep, average ± range from 2 dogs, in mmol/L (unit assumed)
compound,measurement,setting,value
CC(C)[C@@H]1NC(=O)[C@@H]2C[C@@H](O)CN2C(=O)[C@H]([C@@H](C)O)NC(=O)[C@H](CCCCN)NC(=O)[C@H](CCC(=O)O)NC(=O)[C@H](CC(N)=O)NC(=O)CNC(=O)[C@@H]2C[C@@H](O)CN2C(=O)[C@H](CC(N)=O)NC1=O [AFPep] (cyclo(EKT[Hyp]VN[Hyp]GN)),"other clinical indicators (mobility, playfulness, appetite, stool consistency, heart rate, respiration rate, capillary refill time, body temperature)",[1]; dogs,remained normal
same,reflux or vomiting after administration,[1]; dogs,no evidence of reflux or vomiting
same,Capillary refill time,"[1]; unanesthetized dogs, 30 min Post AFPep, 6 dogs",<2 s
same,Body temperature,"[1]; unanesthetized dogs, 30 min Post AFPep, mean from 6 dogs",39.0 °C
same,Heart Rate,[1]; [3],112 ± 5
same,Respiration Rate,[1]; [3],28 ± 4
same,liver enzymes,"[2]; 4 mg/kg i.v., dogs, no anesthesia, mild manual restraint",No such elevations in liver enzymes
same,changes to clinical chemistry and hematology values,"[2]; 4 mg/kg i.v., normal beagle dogs",In no case did exposure to AFPep result in significant changes
same,Bilirubin Conjugated,[2]; [4],0
same,Total Bilirubin,[2]; [4],0.1 mg/dL
same,WBC,"[2]; dogs ~10 kg, 24 h after i.v. 40 mg AFPep, average ± range from 2 dogs",7.0 ± 3
same,Platelet,"[2]; dogs ~10 kg, 24 h after i.v. 40 mg AFPep, average ± range from 2 dogs, in 10^3/µL (unit assumed)",274 ± 21
same,RBC,"[2]; dogs ~10 kg, 24 h after i.v. 40 mg AFPep, average ± range from 2 dogs, in 10^6/µL (unit assumed)",6.9 ± 1
same,HCT,"[2]; dogs ~10 kg, 24 h after i.v. 40 mg AFPep, average ± range from 2 dogs, in % (unit assumed)",46 ± 1.5
same,ALP,[2]; [5],33 ± 2
same,ALT,[2]; [5],16 ± 1
same,AST,[2]; [5],20 ± 1
same,Creatine Kinase,[2]; [5],135 ± 2.7
same,GGT,[2]; [5],3 ± 1
same,MCV,"[2]; dogs ~10 kg, 24 h after i.v. 40 mg AFPep, average ± range from 2 dogs, in fL (unit assumed)",68 ± 0.8
same,Albumin,[2]; [6],3.2 ± 0.1
same,Globulin,[2]; [6],2.6 ± 0.1
same,HGB,[2]; [6],15.9 ± 1
same,Total Protein,[2]; [6],5.8 ± 0.1
same,BUN,[2]; [7],13.2 ± 2
same,Calcium,[2]; [7],10.3 ± 0.4
same,Cholesterol,[2]; [7],171 ± 2
same,Creatinine,[2]; [7],0.7 ± 0.1
same,Glucose,[2]; [7],93 ± 9
same,Phosphorous,[2]; [7],4.6 ± 0.2
same,Bicarbonate TCO2,[2]; [8],21 ± 1
same,Chloride,[2]; [8],112 ± 1
same,Potassium,[2]; [8],4.7 ± 0.1
same,Sodium,[2]; [8],146 ± 2
same,MCH,"[2]; dogs ~10 kg, 24 h after i.v. 40 mg AFPep, average ± range from 2 dogs, in pg (unit assumed)",23.2 ± 1
